Assay results as given in patent publication US9833497B2, “Human originated EGF domain proteins and use of the same” (CHENGDU SOURCEBIO LIMITED-LIABILITY COMPANY, priority 2013, dated 2017).

Assays:
Format in all cases: cell-based
[1] = test system: E. coli BL21; assay: MIC against Gram-negative bacteria: E. coli BL21; details: 5×10^5 CFU/mL; for MIC (μg/mL) E. coli BL21: 10 h cultivation at 37° C.
Method in brief: (§1)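 MIC, the lowest recombinant protein concentration giving no bacterial growth, found by two-fold serial dilution of human EGF-domain proteins in triplicate. Inoculum 5×10^5 CFU/mL in LB from cultures at McFarland 0.5; plates incubated at 37° C, 175 rpm shaking.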

[2] = test system: Aeromonas hydrophila; assay: MIC against Gram-negative bacteria: Aeromonas hydrophila; details: 5×10^5 CFU/mL; for MIC (μg/mL) A. hydrophila: 10 h cultivation at 37° C.
Method in brief: as §1

[3] = test system: Serratia marcescens; assay: MIC against Gram-negative bacteria: Serratia marcescens; details: 5×10^5 CFU/mL; for MIC (μg/mL) S. marcescens: 10 h cultivation at 37° C.
Method in brief: as §1

[4] = test system: Pseudomonas aeruginosa; assay: MIC against Gram-negative bacteria: Pseudomonas aeruginosa; details: 5×10^5 CFU/mL; for MIC (μg/mL) P. aeruginosa: 10 h cultivation at 37° C.
Method in brief: as §1

[5] = test system: Proteus vulgaris; assay: MIC against Gram-negative bacteria: Proteus vulgaris; details: 5×10^5 CFU/mL; for MIC (μg/mL) P. vulgaris: 10 h cultivation at 37° C.
Method in brief: as §1

[6] = test system: E. coli DH5α; assay: Antibacterial activity: MIC and growth curve against E. coli DH5α in 96-well plate; details: minimal inhibitory concentration against E. coli DH5α; 96-well plate, 5×10^5 CFU/mL, 37° C., judged after 8 h
Method in brief: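 Log-phase bacteria (OD600 ~0.5) resuspended in LB at 5×10^5 CFU/mL, exposed to recombinant protein at 50, 25, 12.5 μg/mL final in triplicate, 37 °C shaking at 175 rpm. OD600 read every 30 min; MIC is lowest concentration showing no growth.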

[7] = test system: Klebsiella pneumonia; assay: MIC against Gram-negative bacteria: Klebsiella pneumonia; details: 5×10^5 CFU/mL; for MIC (μg/mL) K. pneumonia: 10 h cultivation at 37° C.
Method in brief: as §1

[8] = test system: Moraxella catarrhalis; assay: MIC against Gram-negative bacteria: Moraxella catarrhalis; details: 5×10^5 CFU/mL; for MIC (μg/mL) M. catarrhalis: 10 h cultivation at 37° C.
Method in brief: as §1

[9] = test system: Proteus mirabilis; assay: MIC against Gram-negative bacteria: Proteus mirabilis; details: 5×10^5 CFU/mL; for MIC (μg/mL) P. mirabilis: 10 h cultivation at 37° C.
Method in brief: as §1

[10] = test system: Enterobacter cloacae; assay: MIC against Gram-negative bacteria: Enterobacter cloacae; details: 5×10^5 CFU/mL; for MIC (μg/mL) E. cloacae: 10 h cultivation at 37° C.
Method in brief: as §1

[11] = test system: Citrobacter diversus; assay: MIC against Gram-negative bacteria: Citrobacter diversus; details: 5×10^5 CFU/mL; for MIC (μg/mL) C. diversus: 10 h cultivation at 37° C.
Method in brief: as §1

PRT1328 (LINVCLTKNGGCSEFAICNHTGQVERTCTCKPNYIGDGFT; listed as Homo sapiens)
MIC against E. coli BL21 ([1]; E. coli BL21, 96-well plate, 37° C., 10 h): 12.5 µg/mL | MIC against A. hydrophila ([2]; Aeromonas hydrophila, 96-well plate, 37° C., 10 h): 25 µg/mL | MIC against S. marcescens ([3]; Serratia marcescens, 96-well plate, 37° C., 10 h): 50 µg/mL | MIC against P. aeruginosa ([4]; Pseudomonas aeruginosa, 96-well plate, 37° C., 10 h): 50 µg/mL | MIC against P. vulgaris ([5]; Proteus vulgaris, 96-well plate, 37° C., 10 h): 12.5 µg/mL | MIC [6]: 12.5 µg/mL | MIC against K. pneumonia ([7]; Klebsiella pneumonia, 96-well plate, 37° C., 10 h): 12.5 µg/mL | MIC against M. catarrhalis ([8]; Moraxella catarrhalis, 96-well plate, 37° C., 10 h): 25 µg/mL | MIC against P. mirabilis ([9]; Proteus mirabilis, 96-well plate, 37° C., 10 h): 50 µg/mL | MIC against E. cloacae ([10]; Enterobacter cloacae, 96-well plate, 37° C., 10 h): 50 µg/mL | MIC against C. diversus ([11]; Citrobacter diversus, 96-well plate, 37° C., 10 h): 12.5 µg/mL

PRT190 (ECPLNYCRNGGTCVVEKNGPMCRCRQGWKGNRC; listed as Homo sapiens)
MIC (μg/mL) E. coli BL21 ([1]; E. coli BL21): 25 µg/mL | MIC (μg/mL) A. hydrophila [2]: 25 µg/mL | MIC (μg/mL) S. marcescens [3]: 12.5 µg/mL | MIC (μg/mL) P. aeruginosa [4]: 50 µg/mL | MIC (μg/mL) P. vulgaris [5]: 12.5 µg/mL | MIC [6]: 12.5 µg/mL | MIC (μg/mL) K. pneumonia [7]: 25 µg/mL | MIC (μg/mL) M. catarrhalis [8]: 12.5 µg/mL | MIC (μg/mL) P. mirabilis [9]: 12.5 µg/mL | MIC (μg/mL) E. cloacae [10]: 12.5 µg/mL | MIC (μg/mL) C. diversus [11]: 12.5 µg/mL

PRT524 (CNCSRRGTIEAAMPECDRDSGQCRCKPRITGRQCDRCASGFYRFPECVP; listed as Homo sapiens)
MIC against E. coli BL21 ([1]; 96-well plate, 37° C., 10 h): 12.5 µg/mL | MIC against A. hydrophila ([2]; 96-well plate, 37° C., 10 h): 25 µg/mL | MIC against S. marcescens ([3]; 96-well plate, 37° C., 10 h): 50 µg/mL | MIC against P. aeruginosa ([4]; 96-well plate, 37° C., 10 h): 12.5 µg/mL | MIC against P. vulgaris ([5]; 96-well plate, 37° C., 10 h): 25 µg/mL | MIC [6]: 12.5 µg/mL | MIC against K. pneumonia ([7]; 96-well plate, 37° C., 10 h): 25 µg/mL | MIC against M. catarrhalis ([8]; 96-well plate, 37° C., 10 h): 25 µg/mL | MIC against P. mirabilis ([9]; 96-well plate, 37° C., 10 h): 12.5 µg/mL | MIC against E. cloacae ([10]; 96-well plate, 37° C., 10 h): 12.5 µg/mL | MIC against C. diversus ([11]; 96-well plate, 37° C., 10 h): 100 µg/mL

PRT548 (CPCPLSVPSNNFAEGCVLRGGRTQCLCKPGYAGASCERCAPGFFGNPLVLGSSCQP; listed as Homo sapiens)
MIC against E. coli BL21 ([1]; 96-well plate, 37° C., 10 h): 25 µg/mL | MIC against A. hydrophila ([2]; 96-well plate, 37° C., 10 h): 25 µg/mL | MIC against S. marcescens ([3]; 96-well plate, 37° C., 10 h): 50 µg/mL | MIC against P. aeruginosa ([4]; 96-well plate, 37° C., 10 h): 50 µg/mL | MIC against P. vulgaris ([5]; 96-well plate, 37° C., 10 h): 25 µg/mL | MIC [6]: 12.5 µg/mL | MIC against K. pneumonia ([7]; 96-well plate, 37° C., 10 h): 25 µg/mL | MIC against M. catarrhalis ([8]; 96-well plate, 37° C., 10 h): 25 µg/mL | MIC against P. mirabilis ([9]; 96-well plate, 37° C., 10 h): 12.5 µg/mL | MIC against E. cloacae ([10]; 96-well plate, 37° C., 10 h): 12.5 µg/mL | MIC against C. diversus ([11]; 96-well plate, 37° C., 10 h): 50 µg/mL

PRT260 (CRAGNGGCHGLATCRAVGGGQRVCTCPPGFGGDGFSC; listed as Homo sapiens)
MIC (μg/mL) E. coli BL21 ([1]; E. coli BL21): 25 µg/mL | MIC (μg/mL) A. hydrophila [2]: 25 µg/mL | MIC (μg/mL) S. marcescens [3]: 12.5 µg/mL | MIC (μg/mL) P. aeruginosa [4]: 50 µg/mL | MIC (μg/mL) P. vulgaris [5]: 12.5 µg/mL | MIC [6]: 12.5 µg/mL | MIC (μg/mL) K. pneumonia [7]: 25 µg/mL | MIC (μg/mL) M. catarrhalis [8]: 25 µg/mL | MIC (μg/mL) P. mirabilis [9]: 12.5 µg/mL | MIC (μg/mL) E. cloacae [10]: 12.5 µg/mL | MIC (μg/mL) C. diversus [11]: 50 µg/mL

PRT145 (DVNECEIYSGTPLSCQNGGTCVNTMGSYSCHCPPETYGPQCA; listed as Homo sapiens)
MIC (μg/mL) E. coli BL21 ([1]; E. coli BL21): 12.5 µg/mL | MIC (μg/mL) A. hydrophila [2]: 12.5 µg/mL | MIC (μg/mL) S. marcescens [3]: 25 µg/mL | MIC (μg/mL) P. aeruginosa [4]: 12.5 µg/mL | MIC (μg/mL) P. vulgaris [5]: 12.5 µg/mL | MIC [6]: 12.5 µg/mL | MIC (μg/mL) K. pneumonia [7]: 12.5 µg/mL | MIC (μg/mL) M. catarrhalis [8]: 12.5 µg/mL | MIC (μg/mL) P. mirabilis [9]: 25 µg/mL | MIC (μg/mL) E. cloacae [10]: 12.5 µg/mL | MIC (μg/mL) C. diversus [11]: 12.5 µg/mL

PRT741 (SAHPCARDNGGCSHICIAKGDGTPRCSCPVHLVLLQNLLTCG; listed as Homo sapiens)
MIC E. coli BL21 ([1]; 96-well plate, 37° C., 10 h): 50 µg/mL | MIC A. hydrophila ([2]; 96-well plate, 37° C., 10 h): 12.5 µg/mL | MIC S. marcescens ([3]; 96-well plate, 37° C., 10 h): 12.5 µg/mL | MIC P. aeruginosa ([4]; 96-well plate, 37° C., 10 h): 12.5 µg/mL | MIC P. vulgaris ([5]; 96-well plate, 37° C., 10 h): 25 µg/mL | MIC [6]: 12.5 µg/mL | MIC K. pneumonia ([7]; 96-well plate, 37° C., 10 h): 25 µg/mL | MIC M. catarrhalis ([8]; 96-well plate, 37° C., 10 h): 12.5 µg/mL | MIC P. mirabilis ([9]; 96-well plate, 37° C., 10 h): 50 µg/mL | MIC E. cloacae ([10]; 96-well plate, 37° C., 10 h): 50 µg/mL | MIC C. diversus ([11]; 96-well plate, 37° C., 10 h): 50 µg/mL
